Assay [1] deals with T1, androgen receptor (AR) splicing variant AR-v7 (Homo sapiens, UniProt P10275).
T1 construct: The degradation activity of compounds on AR-v7 in 22RV1 cells; host or cells: 22RV1 cells
T1 sequence (P10275 1-644 isoform P10275-3): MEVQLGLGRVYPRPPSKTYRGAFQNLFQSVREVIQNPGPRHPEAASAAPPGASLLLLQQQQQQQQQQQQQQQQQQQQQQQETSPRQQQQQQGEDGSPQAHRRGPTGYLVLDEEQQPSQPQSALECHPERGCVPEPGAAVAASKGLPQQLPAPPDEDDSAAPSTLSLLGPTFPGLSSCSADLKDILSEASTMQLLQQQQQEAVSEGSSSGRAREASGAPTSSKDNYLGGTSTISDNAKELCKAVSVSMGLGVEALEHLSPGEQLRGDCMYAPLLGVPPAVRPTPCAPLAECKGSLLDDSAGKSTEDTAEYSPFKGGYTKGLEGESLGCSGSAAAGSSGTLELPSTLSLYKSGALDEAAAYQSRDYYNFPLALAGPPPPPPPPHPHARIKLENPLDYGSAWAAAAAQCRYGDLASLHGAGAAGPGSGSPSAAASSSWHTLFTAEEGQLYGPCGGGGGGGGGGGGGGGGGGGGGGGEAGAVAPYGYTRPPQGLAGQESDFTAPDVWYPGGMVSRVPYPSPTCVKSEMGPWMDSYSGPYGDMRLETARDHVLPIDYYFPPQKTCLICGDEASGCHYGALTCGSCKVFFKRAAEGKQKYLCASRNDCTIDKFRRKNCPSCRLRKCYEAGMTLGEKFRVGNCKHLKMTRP
As to the kind of experiment: Degradation activity on androgen receptor splicing variant AR-v7 in 22RV1 cells (ELISA). Format: cell-based. To be noted: AR-v7 degradation in 22RV1 cells, 48 h, class symbols.

Assay [2] deals with 22RV1 cells.
Where [3] appears, read: Homo sapiens, 22Rv1, 144 h, read-out: 22RV1 IC50 (nM), 22RV1 cells, 6 days culture, CCK-8, OD 450 nm.
[4] abbreviates: Homo sapiens, 22Rv1, 144 h, read-out: 22RV1 IC50 (nM).

For 25 compounds, DC50 and IC50 results are on record in patent US20250051347A1, “BIFUNCTIONAL CHIMERIC HETEROCYCLIC COMPOUND AND USE THEREOF AS ANDROGEN RECEPTOR DEGRADER” (Hinova Pharmaceuticals, Inc., priority 2021, published 2025).

Where two headings read alike, the source gives them in different places.

Usually DC50 stands for the concentration giving 50% degradation. Higher therefore signals a less potent degrader. By IC50 is commonly meant the concentration needed to halve the response being measured.

The compound `CC1CN(c2nccc(COc3ccc(C(C)(C)c4ccc(O[C@H]5C[C@H](Nc6ccc7c(c6)C(=O)N(C6CCC(=O)NC6=O)C7=O)C5)cc4)cc3)n2)CCN1C` (some centres unmarked) [Example 450, 5-(((1r,3r)-3-(4-(2-(4-((2-(3,4-dimethylpiperazin-1-yl)pyrimidin-4-yl)methoxy)phenyl)propan-2-yl)phenoxy)cyclobutyl)amino)-2-(2,6-dioxopiperidin-3-yl)isoindolin-1,3-dione] yielded a DC50 in assay [1] of 11 to 100 nM. Further, in assay [2] (setting [3]), the IC50 was 8 nM.

In assay [1], `CC(C)(c1ccc(OCc2ccnc(N3CCNCC3)n2)cc1)c1ccc(OC2CC(Nc3ccc4c(c3)C(=O)N(C3CCC(=O)NC3=O)C4=O)C2)cc1` (centres unmarked) [Example 451, 2-(2,6-dioxopiperidin-3-yl)-5-((3-(4-(2-(4-((2-(piperazin-1-yl)pyrimidin-4-yl)methoxy)phenyl)propan-2-yl)phenoxy)cyclobutyl)amino)isoindolin-1,3-dione] yielded a DC50 of under 10 nM. Moreover, in assay [2] (setting [3]), the IC50 worked out at 11 nM.

As for `CC1CN(c2nccc(COc3ccc(C(C)(C)c4ccc(OC5CC(Nc6ccc7c(c6)C(=O)N(C6CCC(=O)NC6=O)C7=O)C5)cc4)cc3)n2)CC(C)N1` (centres unmarked) [Example 452, 5-((3-(4-(2-(4-((2-(3,5-dimethylpiperazin-1-yl)pyrimidin-4-yl)methoxy)phenyl)propan-2-yl)phenoxy)cyclobutyl)amino)-2-(2,6-dioxopiperidin-3-yl)isoindolin-1,3-dione], the DC50 in assay [1] fell in the range of 11 to 100 nM. Besides, the IC50 in assay [2] (setting [3]) is 8 nM.

In turn, `CC(C)(c1ccc(OCc2ccnc(N3CC(O)C3)n2)cc1)c1ccc(O[C@H]2C[C@@H](Nc3ccc4c(c3)C(=O)N(C3CCC(=O)NC3=O)C4=O)C2)cc1` (some centres unmarked) [Example 453] had a half-maximal degradation concentration (DC50) in assay [1] of under 10 nM. Also, the IC50 in assay [2] (setting [3]) is 6 nM.

On to `CC(C)(c1ccc(OCc2ccnc(-n3cnnc3)n2)cc1)c1ccc(O[C@H]2C[C@@H](Nc3ccc4c(c3)C(=O)N(C3CCC(=O)NC3=O)C4=O)C2)cc1` (some centres unmarked) [Example 461], for which the DC50 in assay [1] was under 10 nM. For the same compound, in assay [2] (setting [3]), the IC50 came to 11 nM.

In the case of `Cc1nnc(-c2cccc(COc3ccc(C(C)(C)c4ccc(O[C@H]5C[C@H](Nc6ccc7c(c6)C(=O)N(C6CCC(=O)NC6=O)C7=O)C5)cc4)cc3)n2)o1` (some centres unmarked) [Example 463], in assay [1], the DC50 is under 10 nM. In addition, the IC50 in assay [2] (setting [3]) was 11 nM.

`Cc1nnc(-c2nccc(COc3ccc(C(C)(C)c4ccc(O[C@H]5C[C@@H](Nc6ccc7c(c6)C(=O)N(C6CCC(=O)NC6=O)C7=O)C5)cc4)cc3)n2)o1` (some centres unmarked) [Example 465] registered a DC50 in assay [1] of under 10 nM. Further, the IC50 in assay [2] (setting [3]) is 3 nM.

In assay [1], `CC(C)(c1ccc(OCc2ccnc(-c3nnco3)n2)cc1)c1ccc(O[C@H]2C[C@H](Nc3ccc4c(c3)C(=O)N(C3CCC(=O)NC3=O)C4=O)C2)cc1` (some centres unmarked) [Example 468, 5-(((1r,3r)-3-(4-(2-(4-((2-(1,3,4-oxadiazol-2-yl)pyrimidin-4-yl)methoxy)phenyl)propan-2-yl)phenoxy)cyclobutyl)amino)-2-(2,6-dioxopiperidin-3-yl)isoindolin-1,3-dione] gave a DC50 of under 10 nM. In addition, the IC50 in assay [2] (setting [3]) was 5 nM.

In the case of `CC(C)(c1ccc(OCc2cccc(-c3nnco3)n2)cc1)c1ccc(O[C@H]2C[C@H](Nc3ccc4c(c3)C(=O)N(C3CCC(=O)NC3=O)C4=O)C2)cc1` (some centres unmarked) [Example 470, 5-(((1r,3r)-3-(4-(2-(4-((6-(1,3,4-oxadiazol-2-yl)pyridin-2-yl)methoxy)phenyl)propan-2-yl)phenoxy)cyclobutyl)amino)-2-(2,6-dioxopiperidin-3-yl)isoindolin-1,3-dione], in assay [1], the DC50 is under 10 nM. In addition, in assay [2] (setting [3]), the IC50 was 7 nM.

Compound `CC(C)(c1ccc(Oc2ccnc(-n3ccnn3)n2)cc1)c1ccc(O[C@H]2C[C@H](Nc3ccc4c(c3)C(=O)N(C3CCC(=O)NC3=O)C4=O)C2)cc1` (some centres unmarked) [Example 471, 5-(((1r,3r)-3-(4-(2-(4-((2-(1H-1,2,3-triazol-1-yl)pyrimidin-4-yl)oxy)phenyl)propan-2-yl)phenoxy)cyclobutyl)amino)-2-(2,6-dioxopiperidin-3-yl)isoindolin-1,3-dione] came in with a DC50 in assay [1] of under 10 nM. Further, the IC50 in assay [2] (setting [3]) worked out at 17 nM.

In assay [1], `Cc1nnc(-c2ncc(Oc3ccc(C(C)(C)c4ccc(O[C@H]5C[C@H](Nc6ccc7c(c6)C(=O)N(C6CCC(=O)NC6=O)C7=O)C5)cc4)cc3)cn2)o1` (some centres unmarked) [Example 473] yielded a DC50 of 11 to 100 nM. Moreover, the IC50 in assay [2] (setting [3]) stood at 5 nM.

`CC(C)(c1ccc(Oc2cnc(-n3ccnn3)nc2)cc1)c1ccc(O[C@H]2C[C@H](Nc3ccc4c(c3)C(=O)N(C3CCC(=O)NC3=O)C4=O)C2)cc1` (some centres unmarked) [Example 476] showed a DC50 in assay [1] of 11 to 100 nM. Besides, the IC50 in assay [2] (setting [3]) turned out to be 14 nM.

In assay [1], `CC(C)(c1ccc(Oc2cncnc2)cc1)c1ccc(O[C@H]2C[C@H](Nc3ccc4c(c3)C(=O)N(C3CCC(=O)NC3=O)C4=O)C2)cc1` (some centres unmarked) [Example 477, 2-(2,6-dioxopiperidin-3-yl)-5-(((1r,3r)-3-(4-(2-(4-(pyrimidin-5-yloxy)phenyl)propan-2-yl)phenoxy)cyclobutyl)amino)isoindolin-1,3-dione] showed a DC50 of under 10 nM. Also, in assay [2] (setting [3]), the IC50 came to 9 nM.

In assay [1], `CC(C)(c1ccc(Oc2ccc(CN3CC(F)C3)nn2)cc1)c1ccc(O[C@H]2C[C@H](Nc3ccc4c(c3)C(=O)N(C3CCC(=O)NC3=O)C4=O)C2)cc1` (some centres unmarked) [Example 478] gave a DC50 of under 10 nM. Moreover, in assay [2] (setting [3]), the IC50 was found to be 6 nM.

For `Cc1nc(-c2ncc(Oc3ccc(C(C)c4ccc(O[C@H]5C[C@H](Nc6ccc7c(c6)C(=O)N(C6CCC(=O)NC6=O)C7=O)C5)cc4)cc3)cn2)no1` (some centres unmarked) [Example 480], the DC50 in assay [1] was under 10 nM. The IC50 in assay [2] (setting [3]) stood at 12 nM.

`CC(=O)c1nccc(COc2ccc(C(C)(C)c3ccc(O[C@H]4C[C@@H](Nc5ccc6c(c5)C(=O)N(C5CCC(=O)NC5=O)C6=O)C4)cc3)cc2)n1` (some centres unmarked) [Example 491] registered a DC50 in assay [1] of under 10 nM. Moreover, in assay [2] (setting [4]), the IC50 is 4 nM.

In assay [1], `CC(O)c1nccc(COc2ccc(C(C)(C)c3ccc(O[C@H]4C[C@@H](Nc5ccc6c(c5)C(=O)N(C5CCC(=O)NC5=O)C6=O)C4)cc3)cc2)n1` (some centres unmarked) [Example 492] showed a DC50 of under 10 nM. In assay [2] (setting [3]), the IC50 worked out at 7 nM.

Turning to `CC(C)(c1ccc(NC2CC(Nc3ccc4c(c3)C(=O)N(C3CCC(=O)NC3=O)C4=O)C2)cc1)c1ccc(OCc2ccnc(N3CC4(COC4)C3)n2)cc1` (centres unmarked) [Example 494, 5-((3-((4-(2-(4-((2-(2-oxa-6-azaspiro[3.3]heptan-6-yl)pyrimidin-4-yl)methoxy)phenyl)propan-2-yl)phenyl)amino)cyclobutyl)amino)-2-(2,6-dioxopiperidin-3-yl)isoindolin-1,3-dione], the DC50 in assay [1] is under 10 nM. In addition, the IC50 in assay [2] (setting [3]) was determined as 7 nM.

Consider `CC(CNc1ccc2c(c1)C(=O)N(C1CCC(=O)NC1=O)C2=O)COc1ccc(C(C)(C)c2ccc(OCc3ccnc(N4CC5(COC5)C4)n3)cc2)cc1` (centres unmarked) [Example 496, 5-((3-(4-(2-(4-((2-(2-oxa-6-azaspiro[3.3]heptan-6-yl)pyrimidin-4-yl)methoxy)phenyl)propan-2-yl)phenoxy)-2-methylpropyl)amino)-2-(2,6-dioxopiperidin-3-yl)isoindolin-1,3-dione], for which the DC50 in assay [1] was under 10 nM. Besides, the IC50 in assay [2] (setting [4]) amounted to 61 nM.

`CC(C)(c1ccc(OCc2ccnc(N3CC4(COC4)C3)n2)cc1)c1ccc(C(=O)NC2CN(c3ccc4c(c3)C(=O)N(C3CCC(=O)NC3=O)C4=O)C2)cc1` (centres unmarked) [Example 506, 4-(2-(4-((2-(2-oxa-6-azaspiro[3.3]heptan-6-yl)pyrimidin-4-yl)methoxy)phenyl)propan-2-yl)-N-(1-(2-(2,6-dioxopiperidin-3-yl)-1,3-dioxoisoindolin-5-yl)azetidin-3-yl)benzamide] gave a DC50 in assay [1] of under 10 nM. Besides, the IC50 in assay [2] (setting [3]) was determined as 4 nM.

With `Cc1nc(-c2ncc(F)cc2Oc2ccc(C(C)(C)c3ccc(O[C@H]4C[C@H](Nc5ccc6c(c5)C(=O)N(C5CCC(=O)NC5=O)C6=O)C4)cc3)cc2)no1` (some centres unmarked) [Example 512], in assay [1], the DC50 was under 10 nM. Also, in assay [2] (setting [3]), the IC50 was determined as 8 nM.

In assay [1], `CC(C)(c1ccc(Oc2nnc(N3CCOCC3)s2)cc1)c1ccc(O[C@H]2C[C@H](Nc3ccc4c(c3)C(=O)N(C3CCC(=O)NC3=O)C4=O)C2)cc1` (some centres unmarked) [Example 513] returned a DC50 of under 10 nM. In assay [2] (setting [3]), the IC50 was determined as 12 nM.

`CC(C)(c1ccc(Oc2cc(F)cnc2-n2ccnn2)cc1)c1ccc(O[C@H]2C[C@H](Nc3ccc4c(c3)C(=O)N(C3CCC(=O)NC3=O)C4=O)C2)cc1` (some centres unmarked) [Example 517] came in with a DC50 in assay [1] of under 10 nM. Also, the IC50 in assay [2] (read-out: 22RV1 IC50, 22RV1 cells, 6 days culture, CCK-8, OD 450 nm) was 16 nM.

Regarding `CC(c1ccc(Oc2cnc(-n3nccn3)nc2)cc1)c1ccc(O[C@H]2C[C@H](Nc3ccc4c(c3)C(=O)N(C3CCC(=O)NC3=O)C4=O)C2)cc1` (some centres unmarked) [Example 518], the DC50 in assay [1] is under 10 nM. For the same compound, the IC50 in assay [2] (setting [3]) was 13 nM.

As for `CC(O)c1ccc(Oc2ccc(C(C)(C)c3ccc(O[C@H]4C[C@@H](Nc5ccc6c(c5)C(=O)N(C5CCC(=O)NC5=O)C6=O)C4)cc3)cc2)nn1` (some centres unmarked) [Example 522], the DC50 in assay [1] is 11 to 100 nM. Also, in assay [2] (setting [3]), the IC50 came out at 7 nM.
